This experiment deals with T1, human α1A adrenergic receptor (Homo sapiens, UniProt P35348).
T1 construct: host or cells: GeneBLAzer ADRA1A-NFAT-bla CHO-K1 cells
T1 sequence (P35348 1-466): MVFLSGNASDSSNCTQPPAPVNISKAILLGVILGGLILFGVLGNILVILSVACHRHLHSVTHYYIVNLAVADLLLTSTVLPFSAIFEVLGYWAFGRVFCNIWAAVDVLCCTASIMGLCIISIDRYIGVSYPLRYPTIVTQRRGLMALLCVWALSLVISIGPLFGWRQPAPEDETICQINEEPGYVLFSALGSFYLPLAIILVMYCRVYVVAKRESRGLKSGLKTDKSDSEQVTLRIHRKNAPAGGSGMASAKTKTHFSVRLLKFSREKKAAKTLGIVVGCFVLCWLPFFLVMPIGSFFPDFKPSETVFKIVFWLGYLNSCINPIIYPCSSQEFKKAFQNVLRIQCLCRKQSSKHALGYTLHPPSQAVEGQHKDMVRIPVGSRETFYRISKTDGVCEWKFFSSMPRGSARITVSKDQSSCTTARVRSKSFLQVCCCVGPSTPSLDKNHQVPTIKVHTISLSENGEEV
The experiment in a line: Ca2+ mobilization assay in human α1A adrenergic receptor-expressing cells. The experiment is classed as cell-based. Further details: Emax: dose or concentration left out as unconfirmed. Particulars: for Emax at 10 µM: % activation at 10 μmol/L test compound, 100 μmol/L norepinephrine = 100%, well without test compound = 0%; for EC50: CHO-K1 cells expressing human α1A adrenergic receptor, Fluo-4 fluorescence, concentration giving 50% response of Emax, 4-parameter logistic regression. As to the method: CHO-K1 cells that highly express a human α1A adrenergic receptor (GeneBLAzer™ ADRA1A-NFAT-bla CHO-K1 Cells) were purchased from Thermo Fisher Scientific, Inc., and cultured according to the instructions.
The cultured human α1A adrenergic receptor-expressing cells were washed with D-PBS, then replaced with a loading buffer (2 μmol/L Fluo-4/AM, 1× PowerLoad, 2.5 mmol/L Probenecid-containing DMEM (high-glucose)) and incubated at 37° C. for 60 minutes in a 5% CO2 incubator. The cells were detached using 0.05% trypsin-EDTA solution, and suspended in an assay buffer ([…], 0.054 mol/L KCl, 1.8 mmol/L CaCl2), 1 mmol/L MgSO4, 0.11 mol/L glucose, 0.01 mol/L NaH2PO4·2H2O, […], pH 7.3) to be 500,000 cells/mL.
Test compounds were dissolved in dimethylsulfoxide, and diluted with an assay buffer containing 0.3% BSA. The final concentrations of the test compounds were set to fall within the range of 0.1 nmol/L to 10 μmol/L. As a reference compound, norepinephrine was set to have a final concentration within the range of 0.01 nmol/L to 100 μmol/L.
On a 384-well clear bottom black plate coated with poly-D-lysine (Corning Inc.), the above-described cell-suspended solution was dispersed in 40 μL each (20,000 cells/well) and allowed to stand for 10 minutes. The plate was transferred to a fluorescent imaging plate reader (FDSS7000, Hamamatsu Photonics K.K.), and measurements were started. After 1 minute from the start of the measurements, 20 μL of the test compound solutions or norepinephrine solution (total amount: 60 μL/well) was added to each well of the plate (final concentration: 0.1% BSA, 0.1% dimethylsulfoxide), and the temporal change in fluorescence intensity of Fluo-4 was further measured for 5 minutes (Ex 480 nm/Em 540 nm).
The normalized values (% activation) were used for subsequent analyses.
Emax values and EC50 values were calculated by creating a concentration-response curve of the test compounds using a 4-parameter logistic regression with XLFit, Emax value being defined as % activation of test compound at the concentration of 10 μmol/L, and EC50 value being defined as the concentration in which 50% response of the Emax values is shown.

`Fc1cccnc1-c1cscc1NCc1c[nH]cn1` [Example 29, N-((1H-imidazol-4-yl)methyl)-4-(3-fluoropyridin-2-yl)thiophen-3-amine] registered an Emax at 10 µM of 96% and an EC50 of 2.3 nM.

With `c1ccc(-c2cscc2NCc2c[nH]cn2)nc1` [Example 30, N-((1H-imidazol-4-yl)methyl)-4-(pyridin-2-yl)thiophen-3-amine], the Emax at 10 µM worked out at 97% and the EC50 stood at 0.7 nM.

For `COc1cncc(-c2cscc2NCc2c[nH]cn2)n1` [Example 31, N-((1H-imidazol-4-yl)methyl)-4-(6-methoxypyrazin-2-yl)thiophen-3-amine], the Emax at 10 µM worked out at 103% and the EC50 amounted to 0.8 nM.

Regarding `COc1cccc(-c2ccccc2NCc2c[nH]cn2)n1` [Example 32, N-((1H-imidazol-4-yl)methyl)-2-(6-methoxypyridin-2-yl)aniline], the Emax at 10 µM is 100% and the response was half-maximal at 1.1 nM (EC50).

`COc1n[nH]cc1-c1ccc(C)cc1NCc1c[nH]cn1` [Example 33, N-((1H-Imidazol-4-yl)methyl)-2-(3-methoxy-1H-pyrazol-4-yl)-5-methylaniline] showed an Emax at 10 µM of 97% and an EC50 of 3.9 nM.

Molecule `COc1n[nH]cc1-c1ccc(F)cc1NCc1c[nH]cn1` [Example 34, N-((1H-imidazol-4-yl)methyl)-5-fluoro-2-(3-methoxy-1H-pyrazol-4-yl)aniline] had an Emax at 10 µM of 91% and an EC50 of 1.3 nM.

Molecule `CC(Nc1ccccc1-c1cccnc1)c1c[nH]cn1` (stereo not shown) [Example 35, N-(1-(1H-Imidazol-4-yl)ethyl)-2-(pyridin-3-yl)aniline] had an Emax at 10 µM of 90% and an EC50 of 5.1 nM.

Regarding `COc1cccc(-c2ccccc2NC(C)c2c[nH]cn2)n1` (stereo not shown) [Example 37, N-(1-(1H-imidazol-4-yl)ethyl)-2-(6-methoxypyridin-2-yl)aniline], the Emax stood at 109% and the EC50 worked out at 2.1 nM.

`CC(Nc1ccccc1-c1cscn1)c1c[nH]cn1` (stereo not shown) [Example 38, N-(1-(1H-imidazol-4-yl)ethyl)-2-(thiazol-4-yl)aniline] showed an Emax of 107% and a half-maximal effective concentration (EC50) of 0.8 nM.

The molecule `c1nc(CNc2cscc2-c2ccoc2)c[nH]1` [Example 41, N-((1H-Imidazol-4-yl)methyl)-4-(furan-3-yl)thiophen-3-amine] yielded an Emax at 10 µM of 92% and an EC50 of 3.4 nM.

With `c1ncc(-c2cscc2NCc2c[nH]cn2)cn1` [Example 42], the Emax at 10 µM was determined as 97% and the EC50 was found to be 7.3 nM.

With `COc1ncccc1-c1cscc1NCc1c[nH]cn1` [Example 43], the Emax at 10 µM amounted to 90% and the EC50 worked out at 0.6 nM.

Molecule `c1ccc(-c2ccsc2)c(OCc2c[nH]cn2)c1` [Example 44, 4-((2-(Thiophen-3-yl)phenoxy)methyl)-1H-imidazole] gave an Emax at 10 µM of 108% and an EC50 of 2.2 nM.

Molecule `c1coc(-c2ccccc2OCc2c[nH]cn2)c1` [Example 45] showed an Emax at 10 µM of 107% and an EC50 of 9.4 nM.

In turn, `c1csc(-c2ccccc2OCc2c[nH]cn2)c1` [Example 46] yielded an Emax at 10 µM of 104% and an EC50 of 4.8 nM.

With `c1ccc(-c2cn[nH]c2)c(OCc2c[nH]cn2)c1` [Example 47, 4-(2-((1H-imidazol-4-yl)methoxy)phenyl)-1H-pyrazole], the Emax at 10 µM turned out to be 95% and the midpoint of the response, the EC50, lay at 9.9 nM.

Molecule `c1cncc(-c2ccccc2OCc2c[nH]cn2)c1` [Example 48] registered an Emax at 10 µM of 104% and an EC50 of 3 nM.

`Cc1n[nH]cc1-c1ccccc1OCc1c[nH]cn1` [Example 49]: the Emax at 10 µM was 104% and the EC50 is 4.3 nM.

In the case of `N#Cc1n[nH]cc1-c1ccccc1OCc1c[nH]cn1` [Example 50], the Emax at 10 µM worked out at 110% and the response was half-maximal at 0.9 nM (EC50).

As for `Fc1cncc(-c2ccccc2OCc2c[nH]cn2)c1` [Example 51], the Emax at 10 µM stood at 102% and it took 1.8 nM to reach a half-maximal effect (EC50).

Consider `COc1ncccc1-c1ccccc1OCc1c[nH]cn1` [Example 52], for which the Emax at 10 µM came to 90% and a half-maximal effect (EC50) was put at 2.7 nM.

In turn, `COc1cncc(-c2ccccc2OCc2c[nH]cn2)c1` [Example 53] gave an Emax at 10 µM of 93% and an EC50 of 5.1 nM.

Consider `COc1ccncc1-c1ccccc1OCc1c[nH]cn1` [Example 54], for which the Emax at 10 µM turned out to be 98% and a half-maximal effect (EC50) was put at 1.6 nM.

Consider `Cc1ccc(-c2cn[nH]c2)c(OCc2c[nH]cn2)c1` [Example 55], for which the Emax at 10 µM worked out at 101% and a half-maximal effect (EC50) was put at 0.6 nM.

`Cc1ccc(-c2c[nH]nc2C#N)c(OCc2c[nH]cn2)c1` [Example 56]: the Emax at 10 µM is 105% and the EC50 worked out at 0.8 nM.

For `Cc1ccc(-c2cnccc2C)c(OCc2c[nH]cn2)c1` [Example 57], the Emax at 10 µM stood at 96% and the EC50 was 6.1 nM.

Take `Cc1n[nH]cc1-c1ccc(F)cc1OCc1c[nH]cn1` [Example 58]: the Emax at 10 µM was 97% and the response was half-maximal at 1 nM (EC50).

As for `Cc1ccc(-c2c[nH]nc2C)c(OCc2c[nH]cn2)c1` [Example 59], the Emax at 10 µM was 101% and it took 0.4 nM to reach a half-maximal effect (EC50).

`Cc1c(F)cncc1-c1ccccc1OCc1c[nH]cn1` [Example 60] had an Emax at 10 µM of 90% and a concentration giving a half-maximal response (EC50) of 3.2 nM.

Consider `COc1ncc(F)cc1-c1ccccc1OCc1c[nH]cn1` [Example 61], for which the maximum response (Emax) at 10 µM turned out to be 90% and a half-maximal effect (EC50) was put at 4.5 nM.

In turn, `COc1ccncc1-c1ccc(C)cc1OCc1c[nH]cn1` [Example 62] yielded an Emax at 10 µM of 91% and an EC50 of 2.4 nM.

In the case of `COc1ccncc1-c1ccc(F)cc1OCc1c[nH]cn1` [Example 63], the Emax at 10 µM came to 92% and the midpoint of the response, the EC50, lay at 0.7 nM.

`Cc1ncncc1-c1ccc(F)cc1OCc1c[nH]cn1` [Example 64] showed an Emax at 10 µM of 99% and an EC50 of 5.3 nM.

Regarding `Cc1ccc(-c2cncnc2C)c(OCc2c[nH]cn2)c1` [Example 65], the Emax at 10 µM was determined as 98% and the EC50 stood at 6.7 nM.

Molecule `Cc1ccc(-c2cnccn2)c(OCc2c[nH]cn2)c1` [Example 66, 2-(2-((1H-Imidazol-4-yl)methoxy)-4-methylphenyl)pyrazine] registered an Emax at 10 µM of 96% and an EC50 of 1.3 nM.

For the molecule `c1ccc(-c2cscn2)c(OCc2c[nH]cn2)c1` [Example 67, 4-(2-((1H-Imidazol-4-yl)methoxy)phenyl)thiazole], the Emax at 10 µM was 103% and it took 2.1 nM to reach a half-maximal effect (EC50).

Turning to `c1ccc(-c2cnccn2)c(OCc2c[nH]cn2)c1` [Example 68], the Emax amounted to 100% and the EC50 stood at 2.3 nM.

On to `c1ccc(-c2cncnc2)c(OCc2c[nH]cn2)c1` [Example 69], for which the Emax worked out at 104% and the response was half-maximal at 0.9 nM (EC50).

In the case of `c1ccc(-c2nccs2)c(OCc2c[nH]cn2)c1` [Example 70], the Emax amounted to 93% and the EC50 was determined as 2.4 nM.

As to `c1ccc(-c2cncs2)c(OCc2c[nH]cn2)c1` [Example 71], the Emax was determined as 103% and the EC50 turned out to be 1.9 nM.

Take `Cc1ccncc1-c1ccccc1OCc1c[nH]cn1` [Example 72]: the Emax turned out to be 106% and the EC50 stood at 7.4 nM.

`c1ccc(-c2cnccc2C2CC2)c(OCc2c[nH]cn2)c1` [Example 73] returned an Emax of 89% and an EC50 of 0.7 nM.

`COc1c(F)cncc1-c1ccccc1OCc1c[nH]cn1` [Example 74] displayed an Emax of 96% and an EC50 of 0.5 nM.

With `COc1ncncc1-c1ccccc1OCc1c[nH]cn1` [Example 75], the Emax is 95% and the EC50 stood at 0.2 nM.

The Emax is the maximal effect, on the per cent scale that the assay sets. Usually EC50 stands for the midpoint of the concentration-response curve.

The values above are taken from US20260132126A1, “IMIDAZOLE DERIVATIVES” (SANWA KAGAKU KENKYUSHO CO., LTD., priority 2022, published 2026).
